# From publication PMC5650142, “GPR40 partial agonists and AgoPAMs: Differentiating effects on glucose and hormonal secretions in the rodent” (PLoS ONE, 2017)
# Several values for one entry are separate records, joined by “and”; a condition that tells them apart may be missing. Equal entries are not always repeated.
# Legend:
# [1] = system: wild type and GPR40-/- mice; experiment: Mouse incretin measurements (plasma glucagon, wild type and GPR40-/- mice); format: in vivo; details: for Plasma Glucagon: @ 30, individual animals (Fig 6A)
# Method: Wild type and GPR40-/- mice were weighed the day prior to dosing. Food was removed from mice at lights on. 2 hours later mice were dosed via oral gavage (PO) at a volume of 10 ml/kg with vehicle (0.5% methylcellulose), AP1 at 30 mg/kg, or AP3 at 30 mg/kg. At 60 minutes post dose, mice were euthanized via CO2 asphyxiation. Blood was collected via cardiac puncture.
# (§1) Blood for insulin, glucagon, GLP-1, GIP, and PYY measurements was collected into K2EDTA Microtainer tubes (BD, Franklin Lakes, NJ) pre-treated with DPP4 inhibitor (Millipore, Billerica, MA) and cOmplete™ Protease Inhibitor Cocktail Tablets (Roche Diagnostics, Indianapolis, IN). Tubes were centrifuged for 10 minutes at 5000 RPM, and plasma was aliquotted for analysis. Plasma insulin levels were measured via EIA (Mesoscale Discovery ELISA Kit, Gaithersburg MD). Rat plasma total GLP-1 was measured using Total GLP-1 (ver.2) Assay Kit (Cat#: K150JVC). The measurement of active GLP-1 was carried out in a similar manner as that described for total GLP-1 assay with the exception that MSD Active GLP-1 (ver. 2) assay kit (Cat# K150JWC) was used. Rat plasma glucagon was measured using an in-house glucagon assay developed as a MSD format sandwich immunoassay (Merck & Co., Inc., MRL, Kenilworth, NJ USA). The antibody specificity was cross validated via mass- spec using procedures described in Lee et al. Briefly, MSD Streptavidin Gold plates were coated with 2 μg/ml biotin mouse monoclonal antibody generated to glucagon. Test samples were added to the plates and a separate Sulfo- tagged monoclonal antibody was used to detect the captured glucagon protein (2 μg/ml). The ELISA was carried out in the standard reagents in the MSD format. The plate was read on the SECTOR Imager 6000 Reader. Metabolic hormones GIP (Gastric Inhibitory Polypeptide) and PYY (Peptide YY) were measured in rat plasma using the Rat Metabolic Magnetic Bead Panel (EMD Millipore, Billerica, MA). The assay was performed according to manufacturer protocol.
# [2] = system: wild type C57BL/6 and GLP-1R-/- mice; experiment: Mouse glucose tolerance test (IPGTT, wild type and GLP-1R-/- mice); format: in vivo; set-up: Plasma Insulin Net AUC: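 insulin AUC integrated from 0 to 60 min after dextrose challenge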; Blood Glucose Net AUC: unit not given here; details: for Blood Glucose / Plasma Insulin: 10 mpk, 10 mg/kg; for Blood Glucose Net AUC / Plasma Insulin Net AUC: @ 10, individual animals
# Method: Wild type C57BL/6 mice and GLP-1R^-/- mice were fed a high fat diet (D12492i, Research Diets) for 6 weeks prior to GTT. On the day of study, mice were fasted at 1 h post lights on, and body weights were measured. […] Mice were then dosed PO at a volume of 10 ml/kg with vehicle (0.5% methylcellulose), MK-2305 (a GPR40 partial agonist described in Hauge et al) at 10 mg/kg, or AP1 at 30 mg/kg. Dosages of MK-2305 and AP1 were administered at maximal efficacious doses as determined by acute dose titrations with efficacy determined via reduction in glucose during an IPGTT (data not shown). […] Blood glucose was measured again (time = 0) just prior to an intraperitoneal (IP) dextrose challenge of 1 g/kg at 10 ml/kg dose volume (Dextrose, Hospira Inc., Lake Forrest IL). A subset of vehicle treated mice was injected with 0.9% NaCl saline to serve as negative control. Blood glucose was then measured at 10, 20, 40, 60, and 120 min after challenge. To capture insulin secretion during the IPGTT, blood via tail vein was collected at t = - 60, 0, 10, 20, 40, 60 min post challenge.
# Net AUC was calculated by subtracting the average AUC of the saline group from each groups’ total AUC.
# as §1
# [3] = GLP-1R-/- and wild type mice, MK-2305 10 mg/kg, AP1 30 mg/kg PO
# [4] = KO mice, Time 0, individual animals
# [5] = KO mice, Time 10, individual animals
# [6] = KO mice, Time 20, individual animals
# [7] = KO mice, Time 40, individual animals
# [8] = KO mice, Time 60, individual animals
# [9] = KO mice, Time -60, individual animals
# [10] = WT mice, Time 0, individual animals
# [11] = WT mice, Time 10, individual animals
# [12] = WT mice, Time 20, individual animals
# [13] = WT mice, Time 60, individual animals
# [14] = WT mice, Time -60, individual animals
smiles,measurement,setting,value
C[C@H](C(=O)O)[C@H](c1ccc2c(c1)O[C@H](C1CN(Cc3cc(C(F)(F)F)ccc3C(F)(F)F)C1)CC2)C1CC1 [AP3],Plasma Glucagon,[1]; KO mice,20.25 pg/mL and 37.44 pg/mL and 95.8 pg/mL and 40.58 pg/mL and 53.81 pg/mL and 63.13 pg/mL and 24.92 pg/mL
same,circulating glucagon,"[1]; WT mice, 30 mg/kg PO, 1h post dose",increase
same,Plasma Glucagon,[1]; WT mice,137.56 pg/mL and 161.08 pg/mL and 195.45 pg/mL and 174.67 pg/mL and 101.1 pg/mL and 67.12 pg/mL and 161.82 pg/mL
"O=C1NC(=O)C(C2CCOc3cc(Oc4ccc(C(F)(F)F)cc4Cl)ccc32)S1 (stereo not drawn) [MK-2305, reference compound]",blood glucose excursion during IPGTT,[2]; [3],reduced
same,insulin following dextrose challenge (IPGTT),[2]; [3],no effect
same,Blood Glucose,[2]; [4],151 mg/dL and 150 mg/dL and 186 mg/dL and 194 mg/dL and 152 mg/dL and 171 mg/dL and 161 mg/dL
same,Plasma Insulin,[2]; [4],0.848 ng/mL and 0.42 ng/mL and 0.528 ng/mL and 1.053 ng/mL and 0.383 ng/mL and 0.356 ng/mL and 0.379 ng/mL
same,Blood Glucose,[2]; [5],359 mg/dL and 371 mg/dL and 443 mg/dL and 389 mg/dL and 416 mg/dL and 530 mg/dL
same,Plasma Insulin,[2]; [5],1.175 ng/mL and 0.368 ng/mL and 0.464 ng/mL and 0.199 ng/mL and 0.51 ng/mL and 0.24 ng/mL and 0.661 ng/mL
same,Blood Glucose,[2]; [6],361 mg/dL and 257 mg/dL and 455 mg/dL and 411 mg/dL and 438 mg/dL and 432 mg/dL and 566 mg/dL
same,Plasma Insulin,[2]; [6],1.151 ng/mL and 0.543 ng/mL and 0.441 ng/mL and 1.015 ng/mL and 0.58 ng/mL and 0.405 ng/mL and 0.254 ng/mL
same,Blood Glucose,[2]; [7],332 mg/dL and 292 mg/dL and 386 mg/dL
same,Plasma Insulin,[2]; [7],0.591 ng/mL and 0.442 ng/mL and 0.194 ng/mL and 0.983 ng/mL and 0.199 ng/mL and 0.278 ng/mL and 0.213 ng/mL
same,Blood Glucose,[2]; [8],346 mg/dL and 269 mg/dL and 435 mg/dL and 335 mg/dL and 332 mg/dL and 352 mg/dL and 512 mg/dL
same,Plasma Insulin,[2]; [8],0.58 ng/mL and 0.57 ng/mL and 0.264 ng/mL and 0.784 ng/mL and 0.335 ng/mL and 0.275 ng/mL and 0.261 ng/mL
same,Blood Glucose,"[2]; KO mice, Time 120, individual animals",303 mg/dL and 186 mg/dL and 397 mg/dL and 270 mg/dL and 224 mg/dL and 260 mg/dL and 402 mg/dL
same,Blood Glucose,[2]; [9],180 mg/dL and 203 mg/dL and 200 mg/dL and 205 mg/dL and 188 mg/dL and 236 mg/dL and 197 mg/dL
same,Plasma Insulin,[2]; [9],0.786 ng/mL and 0.573 ng/mL and 0.295 ng/mL and 0.819 ng/mL and 0.47 ng/mL and 0.336 ng/mL and 0.379 ng/mL
same,Blood Glucose,"[2]; KO mice, Time -90, individual animals",165 mg/dL and 181 mg/dL and 160 mg/dL and 198 mg/dL and 154 mg/dL and 193 mg/dL and 185 mg/dL
same,Blood Glucose Net AUC,[2]; KO mice,26136 and 8611 and -3694 and 17776 and 10566 and 8161 and 9656
same,Plasma Insulin Net AUC,[2]; KO mice,-6.842 and 24.846 and 2.455 and -5.609 and 23.949 and -2.988 and -7.445
same,Blood Glucose,[2]; [10],173 mg/dl and 130 mg/dl (2×) and 172 mg/dl and 136 mg/dl and 151 mg/dl and 154 mg/dl
same,Plasma Insulin,[2]; [10],2.909 ng/mL and 1.344 ng/mL and 1.761 ng/mL and 0.655 ng/mL and 1.362 ng/mL and 1.244 ng/mL and 1.598 ng/mL
same,Blood Glucose,[2]; [11],300 mg/dL and 375 mg/dL and 416 mg/dL and 324 mg/dL and 318 mg/dL and 369 mg/dL and 438 mg/dL
same,Plasma Insulin,[2]; [11],1.538 ng/mL and 1.501 ng/mL and 2.253 ng/mL and 0.689 ng/mL and 0.787 ng/mL and 2.31 ng/mL and 1.19 ng/mL
same,Blood Glucose,[2]; [12],341 mg/dL and 386 mg/dL and 396 mg/dL and 278 mg/dL and 357 mg/dL and 365 mg/dL and 487 mg/dL
same,Plasma Insulin,[2]; [12],3.87 ng/mL and 1.373 ng/mL and 1.842 ng/mL and 0.672 ng/mL and 0.733 ng/mL and 1.031 ng/mL and 1.681 ng/mL
same,Plasma Insulin,"[2]; WT mice, Time 40, individual animals",3.585 ng/mL and 1.27 ng/mL and 1.204 ng/mL and 0.278 ng/mL and 1.824 ng/mL and 0.546 ng/mL and 1.72 ng/mL
same,Blood Glucose,[2]; [13],285 mg/dL and 328 mg/dL and 270 mg/dL and 195 mg/dL and 296 mg/dL and 260 mg/dL and 442 mg/dL
same,Plasma Insulin,[2]; [13],2.679 ng/mL and 1.626 ng/mL and 1.133 ng/mL and 0.252 ng/mL and 0.763 ng/mL and 0.592 ng/mL and 1.175 ng/mL
same,Blood Glucose,"[2]; WT mice, Time 120, individual animals",328 mg/dL and 300 mg/dL and 191 mg/dL and 160 mg/dL and 218 mg/dL and 205 mg/dL and 311 mg/dL
same,Blood Glucose,[2]; [14],177 mg/dl (2×) and 182 mg/dl and 162 mg/dl (2×) and 153 mg/dl and 176 mg/dl
same,Plasma Insulin,[2]; [14],2.201 ng/mL and 1.482 ng/mL and 1.004 ng/mL and 0.467 ng/mL and 0.749 ng/mL and 1.475 ng/mL and 2.049 ng/mL
same,Blood Glucose,"[2]; WT mice, Time -90, individual animals",182 mg/dL and 151 mg/dL and 166 mg/dL and 146 mg/dL and 175 mg/dL and 155 mg/dL and 164 mg/dL
same,Blood Glucose Net AUC,[2]; WT mice,22732 and 10047 and 12357 and 7637 and -1383 and 8197 and 6232
same,Plasma Insulin Net AUC,[2]; WT mice,17.355 and 112.532 and 10.066 and 20.452 and -45.584 and -4.157 and -12.281
